What was measured:
human factor XIa = human factor XIa (Homo sapiens, UniProt P03951); assay: Factor XIa Assay; format: biochemical; settings: human factor XIa 0.04 nM, substrate GPR-AFC, 30 min pre-incubation, 25° C., pH 7.4; read-out: FXIa IC50
Human plasma kallikrein = target: T1, Human plasma kallikrein (Homo sapiens, UniProt P03952); assay: Plasma Kallikrein Assay; format: biochemical; settings: purified Human plasma kallikrein 0.5 nM, substrate Acetyl-K-P-R-AFC, HEPES pH 7.4; read-out: PKal IC50
T1 construct: yields a heavy chain (371 amino acids) and a light chain (248 amino acids); The active site of plasma kallikrein is contained in the light chain; purchased Enzyme Research Laboratories
T1 sequence (P03952 391-638 limits assumed): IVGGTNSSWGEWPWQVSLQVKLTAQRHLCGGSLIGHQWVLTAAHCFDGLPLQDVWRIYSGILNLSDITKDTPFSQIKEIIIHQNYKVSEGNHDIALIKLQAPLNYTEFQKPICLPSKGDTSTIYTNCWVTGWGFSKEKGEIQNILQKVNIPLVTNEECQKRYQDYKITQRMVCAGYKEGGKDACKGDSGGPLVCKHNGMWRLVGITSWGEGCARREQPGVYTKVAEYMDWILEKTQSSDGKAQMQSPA
T1 sequence (P03952 20-390 partner limits assumed): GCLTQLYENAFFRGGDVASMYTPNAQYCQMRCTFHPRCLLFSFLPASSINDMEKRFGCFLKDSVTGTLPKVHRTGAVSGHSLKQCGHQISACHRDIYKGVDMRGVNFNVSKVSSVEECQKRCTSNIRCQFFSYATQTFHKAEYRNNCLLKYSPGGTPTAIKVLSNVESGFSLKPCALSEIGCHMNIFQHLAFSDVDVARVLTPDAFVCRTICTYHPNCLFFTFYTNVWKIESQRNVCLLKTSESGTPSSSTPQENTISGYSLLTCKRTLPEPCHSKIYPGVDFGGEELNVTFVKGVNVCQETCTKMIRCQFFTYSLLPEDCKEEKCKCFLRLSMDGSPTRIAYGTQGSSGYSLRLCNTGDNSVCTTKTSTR
Procedure, shortened: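 Purified human plasma kallikrein at 0.5 nM final with substrate Acetyl-K-P-R-AFC at […], in 50 mM HEPES pH 7.4, 150 mM NaCl, 5 mM CaCl2, 0.1% PEG 8000, at rt or 37° C after enzyme-inhibitor equilibration. IC50 from four-parameter logistic fit of fluorescence rate; Ki via Cheng-Prusoff.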

human factor XIa, sequence (P03951 388-625 limits assumed): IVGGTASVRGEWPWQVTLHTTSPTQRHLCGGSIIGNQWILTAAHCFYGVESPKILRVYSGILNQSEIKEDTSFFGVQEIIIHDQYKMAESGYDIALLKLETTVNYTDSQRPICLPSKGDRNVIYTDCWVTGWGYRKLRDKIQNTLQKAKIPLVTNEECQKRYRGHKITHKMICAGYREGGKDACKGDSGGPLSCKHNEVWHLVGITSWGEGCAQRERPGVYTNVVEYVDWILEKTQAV
human factor XIa, sequence (P03951 19-387 partner limits assumed): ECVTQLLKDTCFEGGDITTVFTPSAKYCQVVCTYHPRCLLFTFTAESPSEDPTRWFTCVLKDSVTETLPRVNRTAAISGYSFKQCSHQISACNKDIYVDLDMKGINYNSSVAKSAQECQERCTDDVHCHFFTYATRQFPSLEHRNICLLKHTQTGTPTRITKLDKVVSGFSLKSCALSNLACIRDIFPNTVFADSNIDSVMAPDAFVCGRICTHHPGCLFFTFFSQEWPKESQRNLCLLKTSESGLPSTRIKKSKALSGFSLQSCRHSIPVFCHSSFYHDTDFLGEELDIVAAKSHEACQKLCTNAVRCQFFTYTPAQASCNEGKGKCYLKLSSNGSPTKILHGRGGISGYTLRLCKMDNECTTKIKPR

| IC50 (human factor XIa) | IC50 (Human plasma kallikrein) | SMILES |
| --- | --- | --- |
| 1070 nM | 34.8 nM | Nc1c(C(=O)N2CCC[C@@]3(C2)OC(=O)Nc2ccc(Cl)c(F)c23)cnn1-c1cc(F)ccc1OC(F)F [Example 106, (R)-1'-(5-Amino-1-(2-(difluoromethoxy)-5-fluorophenyl)-1H-pyrazole-4-carbonyl)-6-chloro-5-fluorospiro[benzo[d][1,3]oxazine-4,3'-piperidin]-2(1H)-one] |
| 461 nM | 15.2 nM | Nc1c(C(=O)N2CCC[C@@]3(C2)OC(=O)Nc2ccc(Cl)c(F)c23)cnn1-c1cccc(F)c1OC(F)F [Example 107, (R)-1'-(5-Amino-1-(2-(difluoromethoxy)-3-fluorophenyl)-1H-pyrazole-4-carbonyl)-6-chloro-5-fluorospiro[benzo[d][1,3]oxazine-4,3'-piperidin]-2(1H)-one] |
| 1690 nM | 39.6 nM | COc1cccnc1-n1ncc(C(=O)N2CCC[C@@]3(C2)OC(=O)Nc2ccc(Cl)c(F)c23)c1N [Example 108, (R)-1'-(5-Amino-1-(3-methoxypyridin-2-y1)-1H-pyrazole-4-carbonyl)-6-chloro-5-fluorospiro[benzo[d][1,3]oxazine-4,3'-piperidin]-2(1H)-one] |
| > 10000 nM | 338 nM | Cn1ncc(C(=O)N2CCC[C@@]3(C2)OC(=O)Nc2ccc(Cl)c(F)c23)c1N [Example 109, (R)-1'-(5-Amino-1-methyl-1H-pyrazole-4-carbonyl)-6-chloro-5-fluorospiro[benzo[d][1,3]oxazine-4,3'-piperidin]-2(1H)-one] |
| > 10000 nM | 66.1 nM | Nc1c(C(=O)N2CCC[C@@]3(C2)OC(=O)Nc2ccc(Cl)c(F)c23)cnn1-c1cccc(Cl)c1 [Example 110, (R)-1'-(5-Amino-1-(3-chlorophenyl)-1H-pyrazole-4-carbonyl)-6-chloro-5-fluorospiro[benzo[d][1,3]oxazine-4,3'-piperidin]-2(1H)-one] |
| 2990 nM | 80.3 nM | Cc1ccc(-n2ncc(C(=O)N3CCC[C@@]4(C3)OC(=O)Nc3ccc(Cl)c(F)c34)c2N)cc1 [Example 111, (R)-1'-(5-Amino-1-(p-toly1)-1H-pyrazole-4-carbonyl)-6-chloro-5-fluorospiro[benzo[d][1,3]oxazine-4,3'-piperidin]-2(1H)-one] |
| ≥ 10000 nM | 17.8 nM | O=C1Nc2ccc(Cl)c(F)c2[C@@]2(CCCN(C(=O)c3cnn(Cc4ccc(F)cc4)c3O)C2)O1 [Example 132, (R)-6-Chloro-5-fluoro-1′-(1-(4-fluorobenzyl)-5-hydroxy-1H-pyrazole-4-carbonyl)spiro[benzo[d][1,3]oxazine-4,3′-piperidin]-2(1H)-one] |
| 328 nM | 190 nM | Nc1c(C(=O)N2CCC[C@@]3(C2)OC(=O)Nc2ccc(Cl)c(F)c23)nnn1Cc1ccccc1 [Example 133, (R)-1′-(5-Amino-1-benzyl-1H-1,2,3-triazole-4-carbonyl)-6-chloro-5-fluorospiro[benzo[d][1,3]oxazine-4,3′-piperidin]-2(1H)-one] |

From US12679848B2, “Plasma kallikrein inhibitors” (Merck Sharp & Dohme LLC, priority 2020, dated 2026)
